One assay concerns the target T1, SH2 domain of Lck (Homo sapiens, UniProt P06239).
T1 construct: Control experiments performed with the SH2 domain of Lck; made in house
Description: Equilibrium gel filtration control with SH2 domain. In kind it is binding. The following applies: low salt; 50 mM MOPS pH 6.8, 100 mM NaCl.

The target in assay [1] is T2, N-terminal pleckstrin PH domain (Homo sapiens, UniProt P08567).
T2 sequence (P08567 4-101 limits assumed): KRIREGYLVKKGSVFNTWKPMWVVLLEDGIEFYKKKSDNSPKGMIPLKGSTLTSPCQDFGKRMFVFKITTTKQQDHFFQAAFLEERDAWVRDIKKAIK
The following applies: PIP2 in detergent; Harlan et al. 1994; cited from earlier work.

In assay [2] the target is T3, PLCδ-PH (PH domain of rat PLC-δ1) (Rattus norvegicus, UniProt P10688).
T3 construct: initiator methionine (N); made in house; host or cells: Escherichia coli (pET11a, T7 system)
T3 sequence (P10688 20-136): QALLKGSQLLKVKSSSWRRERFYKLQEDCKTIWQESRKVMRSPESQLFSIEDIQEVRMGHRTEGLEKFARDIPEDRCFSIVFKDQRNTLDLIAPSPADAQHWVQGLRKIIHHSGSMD
Description: Isothermal titration calorimetry of inositol polyphosphate / PIP2 vesicle binding to PLCδ-PH. The following applies: for Kd: read-out: KD. The procedure: The resulting titration curve was fit using Omega software (Wiseman et al., 1989).
All experiments utilized the OMEGA instrument from MicroCal (Wiseman, T. et al., Anal. Biochem. 179, 131-137, 1989), in the laboratory of Prof. Julian Sturtevant at Yale. Titrations were performed at 25° C. in 50 mM MOPS, 100 mM NaCl, pH 6.8 or 100 mM NH4OAc at pH 6.8. […] For each titration, PH domain solution was dialyzed exhaustively against the buffer used for dilution of highly concentrated stocks of ligand. Heats for dilution of the ligand solutions were determined in separate titrations of ligand into buffer solution present in the cell.
Higher concentrations were employed for weaker binding events. […] Stoichiometry, binding constant (Kβ) and ΔH were all allowed to float in the fitting procedure.
A titration curve such as that to an equation describing a simple-binding reaction (Wiseman, T. et al., Anal. Biochem. 179, 131-137, 1989). From this fit, values for the binding constant, stoichiometry and ΔH for the binding reaction are ascertained. […] Ferris, C. D. et al, Nature, 342, 87-89, 1989.
On the technique in general: ITC needs no label: the signal is the heat of the interaction.

The next assay has as its target T4, PLCδ-PH (Rattus norvegicus, UniProt P10688).
T4 construct: initiator methionine (N); made in house; host or cells: Escherichia coli (pET11a, T7 system)
T4 sequence (P10688 20-136): T3 sequence (P10688 20-136)
As to the kind of experiment: Spin-column competition assay for 3H-I(145)P3 binding to PLCδ-PH. The procedure:
A spin-column based competition assay was employed to determine relative affinities of other inositol polyphosphates for PLCδ-PH. […] The sample (40 μl) was then applied to a Biogel P6 gel filtration spin-column. […] Each curve represents the mean of two or more experiments.
The sample was then applied to a pre-spun 1 ml spin-column containing Biogel P6 desalting medium. The spin-column was then centrifuged for 4 minutes at 900 g. Essentially all of the protein was determined to pass through the column under these conditions, and no significant counts were seen to pass through the column in the absence of protein. After spinning, all of the material that passed through the column was added to scintillation fluid for counting. Counts were normalized to those obtained in the absence of competitor, and plotted as fraction of maximal binding. […]
Values for which a precise number is given represent the mean of at least two experiments.

Setting [3] is: ITC, PIP2 at 5% in DMPC vesicles.

Here are results for one substance from patent publication US7314620B2, “Methods for diagnosis and treatment of PH domain signal transduction disorders” (New York University, priority 1995, dated 2008).

Several values for one entry are separate records, joined by “and”; a condition that tells them apart may be missing. Equal entries are not always repeated. Entries after “also recorded” stand apart in the source; their conditions may differ. Where two headings read alike, the source gives them in different places.

T1 sequence (P06239 127-224 limits assumed): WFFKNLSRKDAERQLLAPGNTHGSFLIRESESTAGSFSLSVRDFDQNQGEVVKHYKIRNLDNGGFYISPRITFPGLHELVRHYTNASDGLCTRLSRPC

As a reminder, the Kd is the equilibrium constant for the complex coming apart. In the case of “Phosphatidylinositol-(4,5)-bisphosphate [PIP2]”, the binding to vesicles entry on SH2 domain of Lck is “also binds”. In addition, the Kd in assay [1] is about 30000 nM. For the same substance, in assay [2] (setting [3]), the “PIP2 in the vesicle preparation available for PLCδ-PH binding (apparent stoichiometry)” value was 57%; the Kd was 1000 nM and 950 nM. Besides, the “binding affinity in words” value in assay [2] (PIP2 in vesicles) is given as “submicromolar affinities”. Moreover, in assay [2] (individual titrations, 25° C), the ΔG is -8.22 kcal/M and -7.74 kcal/M; the ΔH was -13.6 ± 0.4 kcal/M and -17.4 ± 0.4 kcal/M; the ΔS was −18.1 cal · M^−1 · K^−1 and −32.4 cal · M^−1 · K^−1. The Stoichiometry n in assay [2] (individual titrations, 25° C, pH 6.8, quoted for IPn as the ligand, PIP2 in vesicles assuming 50% available) is 0.88 ± 0.02 and 0.87 ± 0.02. The Kd in assay [2] (individual titrations, 25° C, pH 6.8) was 950 nM and 2120 nM. Further, the Kd on PLCδ-PH (PIP2: 5% in DMPC vesicles, assuming 50% available, read-out: KD from competition assay) is about 400 nM. At PLCδ-PH (lipid at 5% in DMPC vesicles or pure DMPC, assuming 50% of lipid on the surface), the “competition for I(145)P3 binding by lipid vesicles” value is reported as “almost as effective as that seen with unlabelled I(145)P3; also recorded: as effectively as can GPIP2”. In addition, the “binding weaker than I(145)P3” value on PLCδ-PH (relative to I(145)P3 binding to PLCδ-PH) is on record as “two-fold weaker”.
